Experimental data as given in US4029780A, “3-Piperazinyl 1,2,4-benzothiadiazine 1,1-dioxide derivatives their compositions and method of use” (Dainippon Pharmaceutical Co., Ltd., priority 1974, dated 1977).

Key:
[1] = well known; cited from earlier work
Male Wistar rats [2] = assay: Effect on blood glucose (a), oral; details: 300 mg/kg p.o.
Experimental: (a) Male Wistar rats weighing 190-210 g were used. Each test compound was suspended in a concentration of 150 mg/ml in a 0.5% aqueous tragacanth solution and orally administered at a dose of 300 mg/kg by the stomach tube.

Male Wistar rats [3] = assay: Effect on blood glucose (b), intraperitoneal; details: 300 mg/kg i.p.
Experimental: (b) Male Wistar rats weighing 260-285 g were used. […] 4 ml/kg of the above solution of each test compound was intraperitoneally administered to each animal. The blood samples were taken prior to dosing and 1, 3 and 6 hours after the administration and the plasma glucose levels were determined in a similar manner to that described in (a).

[4] = cited from earlier work
[5] = tested on: Spontaneously hypertensive male rats; assay: Antihypertensive activity in spontaneously hypertensive rats (oral, 10 successive days); type: in vivo, rat; details: 10 mg/kg/day p.o.
Experimental: Spontaneously hypertensive male rats [SHR, Jap. Circ. J. 27, 282-93 (1963)] being 18-23 weeks of age and having systolic blood pressure levels of 170-190 mmHg were used. The test compounds were each suspended in a 0.5% aqueous tragacanth solution and administered orally in a dose of 10 mg/kg/day by stomach tube to SHR once a day for 10 successive days. The blood pressure of conscious SHR was measured prior to dosing and 5 hours after administration. It was also measured once daily over a period of 7 days after the end of the treatment period. The measurement of the blood pressure was made by a plethysmographtail method [Jap. Circ. J. 27, 282-93 (1963)].

Male Wistar rats [6] = assay: Effect on urine volume and electrolyte excretion; type: in vivo, rat; details: 100 mg/kg p.o., urinary excretion over 5 hours
Experimental: Male Wistar rats weighing 220 to 260 g were used. Each test compound was suspended in a solution of tragacanth dissolved in a concentration of 0.5% in a 0.9% saline solution so that the volume of the resulting suspension to be administered would be always 25 ml/Kg. The test compounds were administered orally by the stomach tube to the animals at the prescribed doses. The animals were then placed in a metabolic cage and the urine was collected over a period of 5 hours. The total amount of sodium, potassium and chloride excreted was determined by Auto-Analyzer, made by Technicon Instruments Corporation.

CC1=Nc2ccc(Cl)cc2S(=O)(=O)N1 [Compound 3, 7-chloro-3-methyl-2H-1,2,4-benzothiadiazine 1,1-dioxide]
Hyperglycemic effects [1]: marked hyperglycemic effects | Blood glucose (Male Wistar rats [2]; 0 hr (prior to dosing)): 111 mg/dL | Blood glucose (Male Wistar rats [2]; 1 hr): 126 mg/dL | Blood glucose (Male Wistar rats [2]; 3 hr): 125 mg/dL | Blood glucose (Male Wistar rats [2]; 6 hr): 146 mg/dL | Blood glucose (Male Wistar rats [2]; 10 hr): 148 mg/dL | Blood glucose (Male Wistar rats [3]; 0 hr (prior to dosing)): 100 mg/dL | Blood glucose (Male Wistar rats [3]; 1 hr): 361 mg/dL | Blood glucose (Male Wistar rats [3]; 3 hr): 599 mg/dL | Blood glucose (Male Wistar rats [3]; 6 hr): 675 mg/dL | Diuretic action ([4]; known): no diuretic action | Antidiuretic activity ([4]; literature): antidiuretic effects (i.e., sodium and water retaining effect) | Blood pressure ([5]; day 0, 5 hours after administration): 155 mm Hg | Blood pressure ([5]; day 0, prior to dosing (0)): 173 mm Hg | Blood pressure ([5]; day 2, 5 hours after administration): 146 mm Hg | Blood pressure ([5]; day 2, prior to dosing (0)): 166 mm Hg | Blood pressure ([5]; day 4, 5 hours after administration): 151 mm Hg | Blood pressure ([5]; day 4, prior to dosing (0)): 159 mm Hg | Blood pressure ([5]; day 6, 5 hours after administration): 143 mm Hg | Blood pressure ([5]; day 6, prior to dosing (0)): 150 mm Hg | Blood pressure ([5]; day 8, 5 hours after administration): 137 mm Hg | Blood pressure ([5]; day 8, prior to dosing (0)): 153 mm Hg | Blood pressure ([5]; day 10, 24 hours after the final treatment): 144 mm Hg | Blood pressure ([5]; day 14, 120 hours after the final treatment): 175 mm Hg | Cl- (Male Wistar rats [6]): 0.20 mEq | K+ (Male Wistar rats [6]): 0.37 mEq | Na+ (Male Wistar rats [6]): 0.17 mEq | Na+/K+ (Male Wistar rats [6]): 0.51
